What all share (format): in vivo
Assay [1] relates to chickweed (Stellaria media). Briefly: Test C postemergence. The conditions noted are these: Stellaria media, post-emergence. The method, boiled down: (§1)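 Pre: seeds planted, sprayed same day. Post: 1- to 4-leaf plants (2–18 cm). Formulation: non-phytotoxic solvent + surfactant. Greenhouse 12–14 d; visual % control vs untreated, 0–100.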
The subject of assay [2] is velvetleaf (Abutilon theophrasti). Nature of the assay: Test C pre/postemergence. To be noted: Abutilon theophrasti, post-emergence, Postemergence. Summed up: as §1
The subject of assay [3] is goosegrass (Eleusine indica). Briefly: Test C pre/postemergence. The conditions noted are these: Eleusine indica, post-emergence, Postemergence. The method, boiled down:
as §1

The test system of assay [4] is lambsquarters (Chenopodium album). Briefly: Test C pre/postemergence. The conditions noted are these: Chenopodium album, post-emergence, Postemergence. Summed up:
as §1

The subject of assay [5] is giant foxtail (Setaria faberii). Briefly: Test C pre/postemergence. To be noted: Setaria faberi, post-emergence, Postemergence. The method, boiled down: as §1

Each structure is given as a SMILES string.

In the case of `COC(=O)c1nc(C2CC2)nc(N)c1I` [Compound 7], the pest or weed control at 62 g/ha in assay [1] (62 g ai/ha, scale 0 to 100 (0 no effect, 100 complete control), read-out: Chickweed plant response rating) is 0%; in assay [2] (62 g ai/ha, scale 0 to 100 (0 no effect, 100 complete control), read-out: Velvetleaf plant response rating), 0%; in assay [3] (62 g ai/ha, scale 0 to 100 (0 no effect, 100 complete control), read-out: Goosegrass plant response rating) it was 0%; in assay [4] (62 g ai/ha, scale 0 to 100 (0 no effect, 100 complete control), read-out: Lambsquarters plant response rating), 50%; in assay [5] (62 g ai/ha, scale 0 to 100 (0 no effect, 100 complete control), read-out: Foxtail, Giant plant response rating) it was 0%. The pest or weed control at 125 g/ha in assay [1] (125 g ai/ha, scale 0 to 100, read-out: Plant response rating, Chickweed) was determined as 0%; in assay [2] (125 g ai/ha, scale 0 to 100 (0 no effect, 100 complete control), read-out: Velvetleaf plant response rating) it was 10%; in assay [3] (125 g ai/ha, scale 0 to 100 (0 no effect, 100 complete control), read-out: Goosegrass plant response rating), 0%; in assay [4] (125 g ai/ha, scale 0 to 100 (0 no effect, 100 complete control), read-out: Lambsquarters plant response rating), 60%; in assay [5] (125 g ai/ha, scale 0 to 100 (0 no effect, 100 complete control), read-out: Foxtail, Giant plant response rating) it was 0%. The pest or weed control at 250 g/ha in assay [1] (250 g ai/ha, scale 0 to 100, read-out: Plant response rating, Chickweed) turned out to be 0%; in assay [2] (250 g ai/ha, scale 0 to 100, read-out: Plant response rating, Velvetleaf), 35%; in assay [3] (250 g ai/ha, scale 0 to 100, read-out: Plant response rating, Goosegrass) it was 0%; in assay [4] (250 g ai/ha, scale 0 to 100, read-out: Plant response rating, Lambsquarters), 70%; in assay [5] (250 g ai/ha, scale 0 to 100, read-out: Plant response rating, Foxtail, Giant), 0%. The pest or weed control at 500 g/ha in assay [1] (500 g ai/ha, scale 0 to 100, read-out: Plant response rating, Chickweed) worked out at 0%; in assay [2] (500 g ai/ha, scale 0 to 100, read-out: Plant response rating, Velvetleaf), 40%; in assay [3] (500 g ai/ha, scale 0 to 100, read-out: Plant response rating, Goosegrass), 0%; in assay [4] (500 g ai/ha, scale 0 to 100, read-out: Plant response rating, Lambsquarters) it was 80%; in assay [5] (500 g ai/ha, scale 0 to 100, read-out: Plant response rating, Foxtail, Giant), 10%.

Values taken from patent US8802597B2, “Herbicidal pyrimidines” (E I du Pont de Nemours and Company, priority 2003, dated 2014).
